Tested on: HSSY-II tumor spheroid viability
Test: Anticancer human tumor HSSY-II cell line growth inhibition;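 further: spheroids exposed to compounds for seven days before reading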;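 on viability, T/C: percent of DMSO vehicle control viability so 100% = untreated level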
Conditions: spheroids with HUVEC and MSC; for IC50: curve of first compound; for viability, T/C: stronger effect = lower value
Outline: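 Single agents and combinations were tested on spheroids built from tumor cells plus HUVEC and hMSC, at half-log dilutions starting at or near clinical Cmax, else 10 microM; final DMSO 0.25% (v/v).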

[1] = second compound 30 pM, first compound 0.0316 µM
[2] = second compound 30 pM, first compound 0.1 µM
[3] = second compound 30 pM, first compound 0.316 µM
[4] = second compound 30 pM, first compound 1 µM
[5] = second compound 30 pM, first compound 3.16 µM
[6] = second compound 30 pM, first compound 10 µM
[7] = second compound 94.9 pM, first compound 0.0316 µM
[8] = second compound 94.9 pM, first compound 0.1 µM
[9] = second compound 94.9 pM, first compound 0.316 µM
[10] = second compound 94.9 pM, first compound 1 µM
[11] = second compound 94.9 pM, first compound 3.16 µM
[12] = second compound 94.9 pM, first compound 10 µM
[13] = second compound 0.0003 µM, first compound 0.0316 µM
[14] = second compound 0.0003 µM, first compound 0.1 µM
[15] = second compound 0.0003 µM, first compound 0.316 µM
[16] = second compound 0.0003 µM, first compound 1 µM
[17] = second compound 0.0003 µM, first compound 3.16 µM
[18] = second compound 0.0003 µM, first compound 10 µM
[19] = second compound 0.000949 µM, first compound 0.0316 µM
[20] = second compound 0.000949 µM, first compound 0.1 µM
[21] = second compound 0.000949 µM, first compound 0.316 µM
[22] = second compound 0.000949 µM, first compound 1 µM
[23] = second compound 0.000949 µM, first compound 3.16 µM
[24] = second compound 0.000949 µM, first compound 10 µM
[25] = second compound 0.003 µM, first compound 0.0316 µM
[26] = second compound 0.003 µM, first compound 0.1 µM
[27] = second compound 0.003 µM, first compound 0.316 µM
[28] = second compound 0.003 µM, first compound 1 µM
[29] = second compound 0.003 µM, first compound 3.16 µM
[30] = second compound 0.003 µM, first compound 10 µM

With `COc1ccc([C@@H](O)c2cc(-c3ncnc4cc(N5CCOCC5)ccc34)c(F)cc2Cl)nn1` + COc1cc2c(cc1O)CCNC21CSC2c3c(OC(C)=O)c(C)c4c(c3C(COC1=O)N1C(O)C3Cc5cc(C)c(OC)c(O)c5C(C21)N3C)OCO4 the IC50 (second compound 30 pM) was 1.67 µM, the IC50 (second compound 94.9 pM) was 0.686 µM and the IC50 (second compound 0.0003 µM) was under 0.0316 µM. It also gave an IC50 (second compound 0.000949 µM) of under 0.0316 µM, an IC50 (second compound 0.003 µM) of under 0.0316 µM and a viability, T/C [1] of 117%. For the same compound, the viability, T/C [2] was 114%, the viability, T/C [3] was 93.3% and the viability, T/C [4] was 67.1%. The viability, T/C [5] was 29.7%, the viability, T/C [6] was 6.65% and the viability, T/C [7] was 101%. For the same compound, the viability, T/C [8] was 93.8%, the viability, T/C [9] was 75.6% and the viability, T/C [10] was 38.6%. The viability, T/C [11] was 7.08%, the viability, T/C [12] was 1.86% and the viability, T/C [13] was 16.7%. For the same compound, the viability, T/C [14] was 10.5%, the viability, T/C [15] was 7.96% and the viability, T/C [16] was 3.36%. It also gave a viability, T/C [17] of 0.77%, a viability, T/C [18] of 0.17% and a viability, T/C [19] of 2.36%. For the same compound, the viability, T/C [20] was 2.67%, the viability, T/C [21] was 0.85% and the viability, T/C [22] was 0.08%. The viability, T/C [23] was 0.11%, the viability, T/C [24] was 0.22% and the viability, T/C [25] was 0.22%. The viability, T/C [26] was 0.26%, the viability, T/C [27] was 0.22% and the viability, T/C [28] was 0.24%. The viability, T/C [29] was 0.25% and the viability, T/C [30] was 0.34%.
`[2H]c1nc(C)nc([2H])c1-c1cc(NC[C@@H](C)c2cccc3c(C(=O)NC)ccnc23)ncn1` + COc1cc2c(cc1O)CCNC21CSC2c3c(OC(C)=O)c(C)c4c(c3C(COC1=O)N1C(O)C3Cc5cc(C)c(OC)c(O)c5C(C21)N3C)OCO4 showed an IC50 (second compound 30 pM) of over 10 µM, an IC50 (second compound 94.9 pM) of over 10 µM and an IC50 (second compound 0.0003 µM) of under 0.0316 µM. For the same compound, the IC50 (second compound 0.000949 µM) was under 0.0316 µM, the IC50 (second compound 0.003 µM) was under 0.0316 µM and the viability, T/C [1] was 98%. It also gave a viability, T/C [2] of 93.5%, a viability, T/C [3] of 95.2% and a viability, T/C [4] of 99.1%. For the same compound, the viability, T/C [5] was 94.2%, the viability, T/C [6] was 86.2% and the viability, T/C [7] was 86.5%. It also gave a viability, T/C [8] of 89%, a viability, T/C [9] of 92.5% and a viability, T/C [10] of 88.4%. The viability, T/C [11] was 92.1%, the viability, T/C [12] was 78.3% and the viability, T/C [13] was 16.1%. For the same compound, the viability, T/C [14] was 16%, the viability, T/C [15] was 17.8% and the viability, T/C [16] was 14.6%. The viability, T/C [17] was 9.62%, the viability, T/C [18] was 12% and the viability, T/C [19] was 2.64%. For the same compound, the viability, T/C [20] was 1.58%, the viability, T/C [21] was 3.44% and the viability, T/C [22] was 3.49%. For the same compound, the viability, T/C [23] was 2.59%, the viability, T/C [24] was 1.53% and the viability, T/C [25] was 0.15%. The viability, T/C [26] was 0.14%, the viability, T/C [27] was 0.14% and the viability, T/C [28] was 0.14%. The viability, T/C [29] was 1.6% and the viability, T/C [30] was 0.24%.
`Cc1sc2c(c1C)C(c1ccc(Cl)cc1)=NC(CC(=O)Nc1ccc(O)cc1)c1nnc(C)n1-2` (stereo not given) + Cn1nnc2c(C(N)=O)ncn2c1=O was tested, and the IC50 (second compound 1 µM) was 0.164 µM, the IC50 (second compound 3.16 µM) was 0.178 µM and the IC50 (second compound 10 µM) was 0.158 µM. The IC50 (second compound 31.6 µM) was 0.194 µM, the IC50 (second compound 100 µM) was 0.169 µM and the viability, T/C (second compound 1 µM, first compound 0.00949 µM) was 98.5%. The viability, T/C (second compound 1 µM, first compound 0.03 µM) was 85.1%, the viability, T/C (second compound 1 µM, first compound 0.0949 µM) was 64.7% and the viability, T/C (second compound 1 µM, first compound 0.3 µM) was 34.3%. It also gave a viability, T/C (second compound 1 µM, first compound 0.949 µM) of 19.3%, a viability, T/C (second compound 1 µM, first compound 3 µM) of 12.8% and a viability, T/C (second compound 3.16 µM, first compound 0.00949 µM) of 101%. The viability, T/C (second compound 3.16 µM, first compound 0.03 µM) was 90.6%, the viability, T/C (second compound 3.16 µM, first compound 0.0949 µM) was 65.9% and the viability, T/C (second compound 3.16 µM, first compound 0.3 µM) was 35.9%. The viability, T/C (second compound 3.16 µM, first compound 0.949 µM) was 21.6%, the viability, T/C (second compound 3.16 µM, first compound 3 µM) was 12% and the viability, T/C (second compound 10 µM, first compound 0.00949 µM) was 101%. For the same compound, the viability, T/C (second compound 10 µM, first compound 0.03 µM) was 92.9%, the viability, T/C (second compound 10 µM, first compound 0.0949 µM) was 62.3% and the viability, T/C (second compound 10 µM, first compound 0.3 µM) was 32.6%. The viability, T/C (second compound 10 µM, first compound 0.949 µM) was 20.1%, the viability, T/C (second compound 10 µM, first compound 3 µM) was 11.2% and the viability, T/C (second compound 31.6 µM, first compound 0.00949 µM) was 105%. The viability, T/C (second compound 31.6 µM, first compound 0.03 µM) was 98%, the viability, T/C (second compound 31.6 µM, first compound 0.0949 µM) was 69.3% and the viability, T/C (second compound 31.6 µM, first compound 0.3 µM) was 37.3%. The viability, T/C (second compound 31.6 µM, first compound 0.949 µM) was 18.7%, the viability, T/C (second compound 31.6 µM, first compound 3 µM) was 8.46% and the viability, T/C (second compound 100 µM, first compound 0.00949 µM) was 98.1%. It also gave a viability, T/C (second compound 100 µM, first compound 0.03 µM) of 89.5%, a viability, T/C (second compound 100 µM, first compound 0.0949 µM) of 68.7% and a viability, T/C (second compound 100 µM, first compound 0.3 µM) of 31.2%. It also gave a viability, T/C (second compound 100 µM, first compound 0.949 µM) of 13.2% and a viability, T/C (second compound 100 µM, first compound 3 µM) of 5.25%.
